One series deals with T1, HsCIpP (Homo sapiens, UniProt Q16740, P57S).
T1 construct: 2x(His6-thrombin)-SUMO (N, cleaved yes); made in house; host or cells: E. coli (SG1146 stated for HsClpP; 'a similar protocol' for HsClpX)
In words: Peptidase activity assay (Ac-WLA-AMC cleavage) with ADEP. The following applies: 6 μM HsCIpP, 100 μM Ac-WLA-AMC. It counts as biochemical. The method, then:
The peptidase activity of purified, untagged HsCIpP was assessed by monitoring the degradation of peptidyl substrates labelled with a C-terminal 7-amido-4-methylcoumarin (AMC) fluorophore. […] To identify a suitable peptidyl substrate, commercially available AMC-labelled peptides were purchased and tested for degradation by HsCIpP. These include N-acetyl-Trp-Leu-Ala-AMC (Ac-WLA-AMC) (R&D Systems) that was also previously used by Csizmadia et (Csizmadia et al., 2016), benzyloxycarbonyl-Arg-Arg-AMC (Z-RR-AMC) (Sigma-Aldrich), N-acetyl-Leu-Glu-His-Asp-AMC […] (Sigma-Aldrich), N-acetyl-Val-Glu-Thr-Asp-AMC (Ac-VETD-AMC) (Sigma-Aldrich), and benzyloxycarbonyl-Leu-Leu-Leu-AMC (Z-LLL-AMC) (Sigma-Aldrich). Suc-LY-AMC (MP Biomedicals) was also tested as a negative control. All stock solutions of the AMC-labelled peptides were prepared by dissolving the lyophilized peptides in DMSO at 90 mM or a lower concentration recommended by the manufacturer. […] Degradation of the peptidyl substrates and subsequent release of the free AMC moiety was monitored by fluorescence with λex=360 nm and λem=440 nm using the EnSpire 2300 Multilabel Reader (Perkin-Elmer) set to perform a reading every 30 s with 20 flashes. A total of 240 readings were collected for each of three independent replicates prepared for each peptidyl substrate. […]
Initial degradation rates data were analyzed using the Hill model. […]

Another series concerns HEK293 T-REx WT cells. In words: TUNEL assay, fluorescence microscopy. It counts as cell-based, human. The following applies: 10 μM, 72 hours. The method, then: Prior to use, the cover slips were cleaned by treatment with 1 M HCl for 2-3 days, followed by thorough rinsing with distilled water and a second treatment with 95% ethanol for 16-18 hours. The cleaned cover slips were sterilized by autoclaving and dried under UV light. To ensure proper attachment of the cells, the sterilized cover slips were coated with gelatin by application of a 0.2% solution and incubation at 37° C. for at least 2 hours. Excess gelatin solution was then removed, and the cover slips were allowed to dry in a sterile environment for 2-4 hours before use.
WT cells treated with ADEP-41 were seeded at a density of 1×10^5 cells/mL (2 mL per well) to compensate for lack of cell growth and division resulting from the ADEP treatment. […]
Cells were fixed in the presence of 4% formaldehyde at room temperature for 30-45 minutes, followed by membrane permeabilization with 0.1% Triton X-100 (in PBS from Gibco) supplemented with 0.1% sodium citrate at room temperature for 30 minutes. […] Cells were mounted onto standard glass microscope slides with DAPI Fluoromount-G (Southern Biotech) for visual examination using the Eclipse 80i fluorescence microscope (Nikon) equipped with the X-Cite Series 120Q excitation light source (Excelitas Technologies). Both light and fluorescence microscopic images were captured and analyzed using the NIS-Elements Basic Research Software (Nikon).

Series [1] deals with HEK293 T-REx CLPP^−/− cells. In words: Cytotoxicity, SRB staining, 72 hours. To be noted: CLPP^−/− cells lacking endogenous HsCIpP. In general terms: In SRB staining, fixed cells bind dye roughly in proportion to their protein.
Procedure: To assess the cytotoxicity of ADEP analogs, cells were seeded at 1×10^3 or 2×10^3 cells in 50 μL per well on sterile 96-well flat-bottom tissue culture plates (VWR). Growth media without any cells was included as a control. Cells were grown for at least 24 hours to allow proper adherence to the growth surface. Afterwards, ADEP analogs were serially diluted and introduced to the tissue cultures via fresh growth media at 50 μL per well. Inclusion of activators/DMSO brought the final DMSO concentration of the growth media up to a maximum of 0.5% (v:v). […] A total of four independent replicates were prepared for each cell line and for each growth condition used. […]
To assess cell survival, live adherent cells were fixed with 10% (w:v) trichloroacetic acid (TCA) at 4° C. for 1-2 hours. […] Absorbance at λ=510 nm (A510) was then measured using the EnSpire 2300 Multilabel Reader. […]
(§1) To determine the IC50 for the ADEP analogs, relative cell viability (RCV) values were calculated by normalizing the A510 readings in ADEP-containing sample to the DMSO-only control. […]
Assessment of cytotoxicity of ADEP-14 on human breast cancer cell lines (MDA-MB-231 WT, MDA-MB-231 CLPP-KD, MDA-MB-468, and MCF-7) and HEK cells (HEK293 T-Rex and HEK293 T-REx CLPP) were determined using the methods as described above in Example 1. […] Sulforhodamine B (SRB) staining method was used to quantify cell survival.
Series [2] has as its system HEK293 T-REx+CLPP-FLAG cells. The experiment in a line: Cytotoxicity, SRB staining, with or without Dox.
Procedure: (§2) To assess the cytotoxicity of ADEP analogs, cells were seeded at 1×10^3 or 2×10^3 cells in 50 μL per well on sterile 96-well flat-bottom tissue culture plates (VWR). Growth media without any cells was included as a control. Cells were grown for at least 24 hours to allow proper adherence to the growth surface. Afterwards, ADEP analogs were serially diluted and introduced to the tissue cultures via fresh growth media at 50 μL per well. Inclusion of activators/DMSO brought the final DMSO concentration of the growth media up to a maximum of 0.5% (v:v). For experiments that involve overexpression of FLAG-tagged HsCIpP (WT or S153A mutant), Dox (Sigma-Aldrich) was also applied at 0.4 μg/mL (final concentration) as needed. A total of four independent replicates were prepared for each cell line and for each growth condition used. Cells were grown in the presence of ADEP/DMSO for 72 hours.
(§3) To assess cell survival, live adherent cells were fixed with 10% (w:v) trichloroacetic acid (TCA) at 4° C. for 1-2 hours. The tissue culture plates were then rinsed with water to remove dead cells and cell debris and air-dried overnight. […] Absorbance at λ=510 nm (A510) was then measured using the EnSpire 2300 Multilabel Reader. […]
as §1
Series [3] has as its system HEK293 T-REx+CLPPS153A-FLAG cells. The experiment in a line: Cytotoxicity, SRB staining, with or without Dox.
Procedure: as §2, §3, §1

Where a SMILES comes first, the peptide text is derived from it. Bridges are numbered along the chain shown (N, C = ends). [ ]: non-standard residue; d: D form. The star is where a group is joined. Phe(3,5-F2) = N[C@@H](Cc1cc(F)cc(F)c1)C(=O)O; Heptenoyl(2E) = CCCC/C=C/C(=O)*; aThr = C[C@H](O)[C@H](N)C(=O)O; Pip = O=C(O)[C@@H]1CCCCN1

T1 sequence (Q16740 57-277 P57S): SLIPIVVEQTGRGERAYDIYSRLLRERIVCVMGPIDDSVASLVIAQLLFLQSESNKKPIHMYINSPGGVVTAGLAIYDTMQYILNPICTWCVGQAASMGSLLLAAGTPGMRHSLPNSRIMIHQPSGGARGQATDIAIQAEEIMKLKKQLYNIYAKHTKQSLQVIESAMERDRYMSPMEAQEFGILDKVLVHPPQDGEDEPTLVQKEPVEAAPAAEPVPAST

With `CCCC/C=C/C(=O)N[C@@H](Cc1cc(F)cc(F)c1)C(=O)N[C@@H]1C(=O)N2CCC[C@H]2C(=O)N2CCCC[C@H]2C(=O)N[C@@H](C)C(=O)N2CCC[C@H]2C(=O)O[C@H]1C` [ADEP-41] ({Heptenoyl(2E)}-[Phe(3,5-F2)][aThr]P[Pip]AP; ester 2-C), the “Hill coefficient (h), peptidase activity” value on HsCIpP turned out to be 1.5. Also, the “TUNEL-positive cells relative to DMSO-treated WT cells” value in the series with HEK293 T-REx WT cells is reported as “about 20 times”. For the same compound, the “sensitivity to ADEP-induced cytotoxicity” value in series [1] is listed as “resistant”. Besides, the “change in IC50 relative to WT” value in series [2] (0.4 μg/mL Dox, HsCIpP overexpression) is “significant decrease in IC50”. Besides, the “sensitivity relative to WT” value in series [2] (without Dox) and in series [3] (without Dox) was “equally sensitive” throughout. Moreover, the “change in IC50” value in series [3] (0.4 μg/mL Dox, inactive HsCIpP(S153A) overexpression) is “no change in IC50”.

The record behind these values is patent publication US20210171576A1, “METHODS FOR TREATING CANCER WITH ACYLDEPSIPEPTIDE ANALOGS” (priority 2018, published 2021).
